Assay results from patent publication US20100056565A1, “Heterocyclic Derivatives as M3 Muscarinic Receptors” (priority 2007, published 2010).
Structures can show the parent of a compound that is named as a salt.

The compounds below were run against T1, Recombinant human M3 receptor (Homo sapiens, UniProt P20309) (assay: biochemical). Conditions: SPA format; read-out: M3 Ki (SPA format).
T1 construct: expressed in transfected cells; host or cells: CHO-K1 cells (membranes)
Type: binding
Method: Recombinant human M3 receptor was expressed in CHO-K1 cells. Cell membranes were prepared and binding of [3H]-N-methyl scopolamine ([3H]-NMS) and compounds was assessed by a scintillation proximity assay (SPA). The incubation time was 16 hours at room temperature in the presence of 1% (v/v) DMSO. The assay was performed in white 96 well clear-bottomed NBS plates (Corning). Prior to the assay, the CHO cell membranes containing M3 receptor were coated onto SPA WGA (Wheat germ agglutinin) beads (GE Healthcare). Non specific binding was determined in the presence of 1 μM Atropine.
Radioactivity was measured on a Microbeta scintillation counter (PerkinElmer) using a 3H protocol with a 2 minutes per well read time. […] Concentration dependent inhibition of [3H]-NMS binding by compounds was expressed as pIC50.

T1 sequence (P20309 whole entry): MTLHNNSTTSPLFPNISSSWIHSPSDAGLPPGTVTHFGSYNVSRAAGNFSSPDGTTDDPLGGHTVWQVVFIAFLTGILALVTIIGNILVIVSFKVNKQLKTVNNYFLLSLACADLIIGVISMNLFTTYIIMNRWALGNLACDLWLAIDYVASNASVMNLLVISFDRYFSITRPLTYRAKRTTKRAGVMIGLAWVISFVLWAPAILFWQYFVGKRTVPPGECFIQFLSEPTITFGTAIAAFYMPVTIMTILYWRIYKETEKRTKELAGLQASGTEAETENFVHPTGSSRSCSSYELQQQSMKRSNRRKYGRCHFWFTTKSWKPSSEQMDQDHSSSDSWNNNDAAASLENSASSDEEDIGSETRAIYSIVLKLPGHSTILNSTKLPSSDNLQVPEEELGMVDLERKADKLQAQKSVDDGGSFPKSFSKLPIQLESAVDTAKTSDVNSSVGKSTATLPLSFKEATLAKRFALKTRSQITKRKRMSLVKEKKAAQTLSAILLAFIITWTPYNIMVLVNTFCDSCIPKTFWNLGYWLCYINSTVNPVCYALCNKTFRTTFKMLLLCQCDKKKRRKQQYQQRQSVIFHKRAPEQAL

`O[C@](c1ccccc1)(c1ncc(C[N+]23CCC(CC2)[C@@H](OCc2ccsc2)C3)o1)C1CCCCC1` [Example 46, (R)-1-[2-((A)-Cyclohexyl-hydroxy-phenyl-methyl)-oxazol-5-ylmethyl]-3-(thiophen-3-ylmethoxy)-1-azonia-bicyclo[2.2.2]octane; bromide] and `O[C@](c1ccccc1)(c1ncc(C[N+]23CCC(CC2)[C@@H](OCc2ccc(F)cc2)C3)o1)C1CCCCC1` [Example 32, (R)-1-[2-((R)—Cyclohexyl-hydroxy-phenyl-methyl)-oxazol-5-ylmethyl]-3-(4-fluoro-benzyloxy)-1-azonia-bicyclo[2.2.2]octane; bromide] cannot be ordered by Ki: less than 5 nM for the first, less than 5 nM for the second.

`O[C@](c1ccccc1)(c1nnc(C[N+]23CCC(CC2)[C@@H](OCc2ccccc2)C3)o1)C1CCCCC1` [Example 56, (R)-3-benzyloxy-1-[5-((R)-cyclohexyl-hydroxy-phenyl-methyl)-[1,3,4]oxadiazol-2-ylmethyl]-1-azonia-bicyclo[2.2.2]octane; formate] and `O[C@](c1ccccc1)(c1nnc(C[N+]23CCC(CC2)[C@@H](OCc2ccc(F)cc2)C3)o1)C1CCCCC1` [Example 140, (R)-1-[5-((R)—Cyclohexyl-hydroxy-phenyl-methyl)-[1,3,4]oxadiazol-2-ylmethyl]-3-(4-fluoro-benzyloxy)-1-azonia-bicyclo[2.2.2]octane; bromide] cannot be ordered by Ki: less than 5 nM for the first, less than 5 nM for the second.

First: OC(c1ccccc1)(c1ccccc1)c1ncc(C[N+]23CCC(CC2)[C@@H](Oc2ccc(Cl)cc2)C3)o1 [Example 63, (R)-3-(4-Chloro-phenoxy)-1-[2-(hydroxy-diphenyl-methyl)-oxazol-5-ylmethyl]-1-azonia-bicyclo[2.2.2]octane; bromide]
Second: OC(c1ccccc1)(c1ccccc1)c1ncc(C[N+]23CCC(CC2)[C@@H](OCc2ccc(Cl)cc2)C3)o1 [Example 28, (R)-3-(4-Chloro-benzyloxy-1-[2-(hydroxy-diphenyl-methyl)-oxazol-5-ylmethyl]-1-azonia-bicyclo[2.2.2]octane; bromide]
The Ki of the first is lower: less than 5 nM for the first, 5 to 20 nM for the second. The first binds more tightly here.

`OC(c1ccccc1)(c1ccccc1)c1ncc(C[N+]23CCC(CC2)[C@@H](OCc2cccc(F)c2)C3)o1` [Example 49, (R)-3-(3-fluoro-benzyloxy)-1-[2-(hydroxy-diphenyl-methyl)-oxazol-5-ylmethyl]-1-azonia-bicyclo[2.2.2]octane; formate] and `OC(c1ccccc1)(c1ccccc1)c1ncc(C[N+]23CCC(CC2)[C@@H](Oc2cccc(F)c2)C3)o1` [Example 73, (R)-3-(3-Fluoro-phenoxy)-1-[2-(hydroxy-diphenyl-methyl)-oxazol-5-ylmethyl]-1-azonia-bicyclo[2.2.2]octane; bromide] cannot be ordered by Ki: less than 5 nM for the first, less than 5 nM for the second.

`O[C@](c1ccccc1)(c1ncc(C[N+]23CCC(CC2)[C@@H](SCc2ccccc2)C3)o1)C1CCCCC1` [Example 41, (R)-3-Benzylsulfanyl-1-[2-((R)-cyclohexyl-hydroxy-phenyl-methyl)-oxazol-5-ylmethyl]-1-azonia-bicyclo[2.2.2]octane; bromide] and `O[C@](c1ccccc1)(c1ncc(C[N+]23CCC(CC2)C(Cc2ccccc2)C3)o1)C1CCCCC1` (stereo partly drawn) [Example 61, 3-benzyl-1-[2-((R)-cyclohexyl-hydroxy-phenyl-methyl)-oxazol-5-ylmethyl]-1-azonia-bicyclo[2.2.2]octane; formate] cannot be ordered by Ki: less than 5 nM for the first, less than 5 nM for the second.

`OC(c1ccccc1)(c1ccccc1)c1ncc(C[N+]23CCC(CC2)C(COc2cccc(F)c2)C3)o1` (single isomer, unassigned) [Example 84, 3-(3-Fluoro-phenoxymethyl)-1-[2-(hydroxy-diphenyl-methyl)-oxazol-5-ylmethyl]-1-azonia-bicyclo[2.2.2]octane; bromide] and `OC(c1ccccc1)(c1ccccc1)c1ncc(C[N+]23CCC(CC2)[C@@H](Sc2ccc(F)cc2)C3)o1` [Example 97, (R)-3-(4-Fluoro-phenylsulfanyl)-1-[2-(hydroxy-diphenyl-methyl)-oxazol-5-ylmethyl]-1-azonia-bicyclo[2.2.2]octane; bromide] cannot be ordered by Ki: less than 5 nM for the first, less than 5 nM for the second.

`O[C@](c1ccccc1)(c1ncc(C[N+]23CCC(CC2)[C@@H](OC2CCCCO2)C3)o1)C1CCCCC1` (stereo partly drawn) [Example 96, (R)-1-[2-((R)—Cyclohexyl-hydroxy-phenyl-methyl)-oxazol-5-ylmethyl]-3-(tetrahydro-pyran-2-yloxy)-1-azonia-bicyclo[2.2.2]octane; bromide] and `O[C@](c1ccccc1)(c1ncc(C[N+]23CCC(CC2)[C@@H](OCCC2CCCCC2)C3)o1)C1CCCCC1` [Example 53, (R)-3-(2-cyclohexyl-ethoxy)-1-[2-((R)-cyclohexyl-hydroxy-phenyl-methyl)-oxazol-5-ylmethyl]-1-azonia-bicyclo[2.2.2]octane; formate] cannot be ordered by Ki: less than 5 nM for the first, less than 5 nM for the second.

`O=C(N[C@@H]1C[N+]2(Cc3cnc([C@](O)(c4ccccc4)C4CCCCC4)o3)CCC1CC2)c1ccc(Cl)cc1` [Example 19, (S)-3-(4-chloro-benzoylamino)-1-[2-((R)-cyclohexyl-hydroxy-phenyl-methyl)-oxazol-5-ylmethyl]-1-azonia-bicyclo[2.2.2]octane; formate] and `O[C@](c1ccccc1)(c1ncc(C[N+]23CCC(CC2)[C@@H](OCc2ccc(Cl)cc2)C3)o1)C1CCCC1` [Example 44, (R)-3-(4-chloro-benzyloxy)-1-[2-((R)-cyclopentyl-hydroxy-phenyl-methyl)-oxazol-5-ylmethyl]-1-azonia-bicyclo[2.2.2]octane; formate] cannot be ordered by Ki: less than 5 nM for the first, less than 5 nM for the second.

`C=CCO[C@H]1C[N+]2(Cc3cnc([C@](O)(c4ccccc4)C4CCCCC4)o3)CCC1CC2` [Example 51, (R)-3-allyloxy-1-[2-((R)-cyclohexyl-hydroxy-phenyl-methyl)-oxazol-5-ylmethyl]-1-azonia-bicyclo[2.2.2]octane; formate] and `CC(C)=CCO[C@H]1C[N+]2(Cc3cnc([C@](O)(c4ccccc4)C4CCCCC4)o3)CCC1CC2` [Example 38, (R)-1-[2-((R)-cyclohexyl-hydroxy-phenyl-methyl)-oxazol-5-ylmethyl]-3-(3-methyl-but-2-enyloxy)-1-azonia-bicyclo[2.2.2]octane; formate] cannot be ordered by Ki: less than 5 nM for the first, less than 5 nM for the second.

`OC(c1ccccc1)(c1noc(C[N+]23CCC(CC2)[C@@H](Sc2ccccc2)C3)n1)C1CCCCC1` (single isomer, unassigned) [Example 131] and `OC(c1ccccc1)(c1noc(C[N+]23CCC(CC2)[C@@H](CSc2ccccc2)C3)n1)C1CCCCC1` (single isomer, unassigned) [Example 132] cannot be ordered by Ki: less than 5 nM for the first, less than 5 nM for the second.

`N#Cc1ccc(CO[C@H]2C[N+]3(Cc4cnc([C@](O)(c5ccccc5)C5CCCCC5)o4)CCC2CC3)cc1` [Example 21, (R)-3-(4-cyano-benzyloxy)-1-[2-((R)-cyclohexyl-hydroxy-phenyl-methyl)-oxazol-5-ylmethyl]-1-azonia-bicyclo[2.2.2]octane; formate] and `O[C@](c1ccccc1)(c1ncc(C[N+]23CCC(CC2)[C@@H](OCc2ccccc2F)C3)o1)C1CCCCC1` [Example 52, (R)-1-[2-((R)-cyclohexyl-hydroxy-phenyl-methyl)-oxazol-5-ylmethyl]-3-(2-fluoro-benzyloxy)-1-azonia-bicyclo[2.2.2]octane; formate] cannot be ordered by Ki: less than 5 nM for the first, less than 5 nM for the second.

`OC(c1ccccc1)(c1cc(C[N+]23CCC(CC2)C(COc2ccccc2)C3)on1)C1CCCCC1` (single isomer, unassigned) [Example 91] and `OC(c1ccccc1)(c1noc(C[N+]23CCC(CC2)[C@H](COc2ccccc2)C3)n1)C1CCCCC1` (single isomer, unassigned) [Example 144] cannot be ordered by Ki: less than 5 nM for the first, less than 5 nM for the second.

First: OC(c1ccccc1)(c1ccccc1)c1ncc(C[N+]23CCC(CC2)[C@@H](Oc2cc(Cl)cc(Cl)c2)C3)o1 [Example 74, (R)-3-(3,5-dichloro-phenoxy)-1-[2-(hydroxy-diphenyl-methyl)-oxazol-5-ylmethyl]-1-azonia-bicyclo[2.2.2]octane; bromide]
Second: O[C@](c1ccccc1)(c1ncc(C[N+]23CCC(CC2)[C@@H](Oc2cccc(Cl)c2)C3)o1)C1CCCCC1 [Example 65, (R)-3-(3-Chloro-phenoxy)-1-[2-((R)-cyclohexyl-hydroxy-phenyl-methyl)-oxazol-5-ylmethyl]-1-azonia-bicyclo[2.2.2]octane; bromide]
The Ki of the first is higher: greater than 20 nM for the first, less than 5 nM for the second. The second binds more tightly here.

First: O[C@](c1ccccc1)(c1ncc(C[N+]23CCC(CC2)[C@@H](CSc2ccc(F)cc2)C3)o1)C1CCCCC1 [Example 106, (R)-1-[2-((R)—Cyclohexyl-hydroxy-phenyl-methyl)-oxazol-5-ylmethyl]-3-(4-fluoro-phenylsulfanylmethyl)-1-azonia-bicyclo[2.2.2]octane; bromide]
Second: O[C@](c1ccccc1)(c1ncc(C[N+]23CCC(CC2)C(c2ccccc2)C3)o1)C1CCCCC1 (stereo partly drawn) [Example 88, 1-[2-((R)—Cyclohexyl-hydroxy-phenyl-methyl)-oxazol-5-ylmethyl]-3-phenyl-1-azonia-bicyclo[2.2.2]octane; bromide]
The Ki of the first is lower: less than 5 nM for the first, 5 to 20 nM for the second.

`CC(C)CS[C@H]1C[N+]2(Cc3cnc([C@](O)(c4ccccc4)C4CCCCC4)o3)CCC1CC2` [Example 120, (R)-1-[2-((R)—Cyclohexyl-hydroxy-phenyl-methyl)-oxazol-5-ylmethyl]-3-isobutylsulfanyl-1-azonia-bicyclo[2.2.2]octane; bromide] and `OC(c1ccccc1)(c1cc(C[N+]23CCC(CC2)[C@@H](Oc2ccc(F)cc2)C3)on1)C1CCCCC1` (single isomer, unassigned) [Example 143] cannot be ordered by Ki: less than 5 nM for the first, less than 5 nM for the second.
